Reference: patent US4605744A, “Imidazole derivatives” (Hoffmann-La Roche Inc., priority 1985, dated 1986)
Where a name gives a salt, the structure may show the parent alone. Read-outs that look alike come from different tables or passages of the source.

Columns and labels:
Type in all cases: cell-based
E. coli 257 = assay: In vitro antibacterial activity (MIC, Mueller-Hinton broth)
Description: (§1) Drug dilutions are prepared in Mueller-Hinton broth ranging from 128 to 0.008 μg/ml. The diluted agents are dispensed in 100 μl amounts into the wells of a 96-well tray and used immediately or frozen at -10° to -70° C. until needed. Using an automated inoculator, 1.5 μl of a 10^-2 dilution of an overnight culture is added to each well of the tray. The tops of the trays are then sealed using transparent tape and incubated overnight at 37° C. The trays are examined with the aid of a viewer. The lowest concentration at which no growth is observed is considered to be the minimum inhibitory concentration (MIC).

P. aeruginosa 6148B = assay: In vitro antibacterial activity (MIC); details: Pseudomonas aeruginosa, read-out: MIC
Description: as §1

E. cloacae 214 = assay: In vitro antibacterial activity (MIC); details: Enterobacter cloacae, 214, E. cloacae 214; read-out: MIC
Description: as §1

P. mirabilis 90 = assay: In vitro antibacterial activity (MIC); details: Proteus mirabilis, 90, P. mirabilis 90; read-out: MIC
Description: as §1

S. marcescens S147 = assay: In vitro antibacterial activity (MIC); details: Serratia marcescens; S. marcescens S147; read-out: MIC
Description: as §1

K. pneumoniae A = assay: In vitro antibacterial activity (MIC); details: Klebsiella pneumoniae
Description: as §1

E. aerogenes 503-478 = assay: In vitro antibacterial activity (MIC); details: Klebsiella aerogenes, 503478, E. aerogenes 503-478; read-out: MIC
Description: as §1

S. pneumoniae SC = assay: In vitro antibacterial activity (MIC); details: Streptococcus pneumoniae, read-out: MIC
Description: as §1

P. aeruginosa 503-820 = assay: In vitro antibacterial activity (MIC); details: Pseudomonas aeruginosa, 503820; P. aeruginosa 503-820; read-out: MIC
Description: as §1

E. aerogenes 8 = assay: In vitro antibacterial activity (MIC); details: Klebsiella aerogenes; E. aerogenes 8; read-out: MIC
Description: as §1

E. cloacae 9570A = assay: In vitro antibacterial activity (MIC); details: Enterobacter cloacae, read-out: MIC
Description: as §1

P. mirabilis 620A = assay: In vitro antibacterial activity (MIC); details: Proteus mirabilis, 620A, P. mirabilis 620A; read-out: MIC
Description: as §1

P. vulgaris 101 = assay: In vitro antibacterial activity (MIC); details: Proteus vulgaris, 101, P. vulgaris 101; read-out: MIC
Description: as §1

S. marcescens S5 = assay: In vitro antibacterial activity (MIC); details: Serratia marcescens, S5, S. marcescens S5; read-out: MIC
Description: as §1

P. vulgaris 100 = assay: In vitro antibacterial activity (MIC); details: Proteus vulgaris, 100
Description: as §1

S. pyogenes 4 = assay: In vitro antibacterial activity (MIC); details: Streptococcus pyogenes, 4, S. pyogenes 4; read-out: MIC
Description: as §1

S. marcescens S3 = assay: In vitro antibacterial activity (MIC); details: Serratia marcescens; S. marcescens S3; read-out: MIC
Description: as §1

S. marcescens S714 = assay: In vitro antibacterial activity (MIC); details: Serratia marcescens, S714, S. marcescens S714; read-out: MIC
Description: as §1

E. cloacae 9295 = assay: In vitro antibacterial activity (MIC); details: Enterobacter cloacae, 9295, E. cloacae 9295; read-out: MIC
Description: as §1

K. pneumoniae 5096 = assay: In vitro antibacterial activity (MIC); details: Klebsiella pneumoniae; K. pneumoniae 5096; read-out: MIC
Description: as §1

K. pneumoniae HE7 = assay: In vitro antibacterial activity (MIC); details: Klebsiella pneumoniae; K. pneumoniae HE7; read-out: MIC
Description: as §1

P. aeruginosa POW 151 = assay: In vitro antibacterial activity (MIC); details: Pseudomonas aeruginosa, POW151
Description: as §1

P. mirabilis 2 = assay: In vitro antibacterial activity (MIC); details: Proteus mirabilis, 2, P. mirabilis 2; read-out: MIC
Description: as §1

S. marcescens 5805 = assay: In vitro antibacterial activity (MIC)
Description: as §1

K. pneumoniae 503-994 = assay: In vitro antibacterial activity (MIC); details: Klebsiella pneumoniae, 503994, K. pneumoniae 503-994; read-out: MIC
Description: as §1

P. rettgeri ATCC 9250 = assay: In vitro antibacterial activity (MIC); details: Providencia rettgeri, ATCC9250, P. rettgeri ATCC 9250; read-out: MIC
Description: as §1

E. cloacae 24 = assay: In vitro antibacterial activity (MIC); details: Enterobacter cloacae, 24, E. cloacae 24; read-out: MIC
Description: as §1

S. schottmuelleri = assay: In vitro antibacterial activity (MIC); details: read-out: MIC
Description: as §1

E. cloacae 5699 = assay: In vitro antibacterial activity (MIC); details: Enterobacter cloacae, 5699, E. cloacae 5699; read-out: MIC
Description: as §1

E. aerogenes 83 = assay: In vitro antibacterial activity (MIC); details: Klebsiella aerogenes, 83, E. aerogenes 83; read-out: MIC
Description: as §1

P. aeruginosa 5712 = assay: In vitro antibacterial activity (MIC); details: Pseudomonas aeruginosa; P. aeruginosa 5712; read-out: MIC
Description: as §1

E. cloacae P99 = assay: In vitro antibacterial activity (MIC); details: Enterobacter cloacae, P99, E. cloacae P99
Description: as §1

K. pneumoniae 4964 = assay: In vitro antibacterial activity (MIC); details: Klebsiella pneumoniae, 4964
Description: as §1

P. mirabilis 190 = assay: In vitro antibacterial activity (MIC); details: Proteus mirabilis, 190, P. mirabilis 190; read-out: MIC
Description: as §1

P. vulgaris ATCC 6380 = assay: In vitro antibacterial activity (MIC); details: Proteus vulgaris, ATCC6380, P. vulgaris ATCC 6380; read-out: MIC
Description: as §1

S. marcescens SM = assay: In vitro antibacterial activity (MIC); details: Serratia marcescens, read-out: MIC
Description: as §1

S. aureus Smith = assay: In vitro antibacterial activity (MIC); details: Staphylococcus aureus, S. aureus Smith; read-out: MIC
Description: as §1

P. mirabilis 503-1136 = assay: In vitro antibacterial activity (MIC); details: Proteus mirabilis, 5031136, P. mirabilis 503-1136; read-out: MIC
Description: as §1

S. marcescens S4 = assay: In vitro antibacterial activity (MIC); details: Serratia marcescens, S4, S. marcescens S4; read-out: MIC
Description: as §1

K. pneumoniae 8357 = assay: In vitro antibacterial activity (MIC)
Description: as §1

S. marcescens S2 = assay: In vitro antibacterial activity (MIC); details: Serratia marcescens; S. marcescens S2; read-out: MIC
Description: as §1

S. aureus 1059B = assay: In vitro antibacterial activity (MIC); details: Staphylococcus aureus, read-out: MIC
Description: as §1

C. freundii 8ASM = assay: In vitro antibacterial activity (MIC); details: Citrobacter freundii, 8ASM
Description: as §1

P. aeruginosa 8780 = assay: In vitro antibacterial activity (MIC); details: Pseudomonas aeruginosa; P. aeruginosa 8780; read-out: MIC
Description: as §1

Compound: CC1(C)S[C@@H]2[C@H](N=CN3CCC(CCC4=NCCN4)CC3)C(=O)N2[C@H]1C(=O)O [N, [2S-(2alpha,5alpha,6beta)]-6-[[[4-[4,5-dihydro-1H-imidazol-2-yl)ethyl]-1-piperidinyl]methylene]amino]-3,3-dimethyl-7-oxo-4-thia-1-azabicyclo[3.2.0]heptane-2-carboxylic acid hydrochloride]
- MIC (E. coli 257; Escherichia coli, 257, E. coli 257, read-out: MIC): 0.031 µg/mL
- MIC (P. aeruginosa 6148B): 32 µg/mL
- MIC (E. cloacae 214): 0.062 µg/mL
- MIC (P. mirabilis 90): 0.125 µg/mL
- MIC (S. marcescens S147): 0.062 µg/mL
- MIC (K. pneumoniae A; K. pneumoniae A, read-out: MIC): 0.016 µg/mL
- MIC (E. aerogenes 503-478): 4 µg/mL
- MIC (S. pneumoniae SC): 1 µg/mL
- MIC (P. aeruginosa 503-820): 16 µg/mL
- MIC (E. aerogenes 8): 32 µg/mL
- MIC (E. cloacae 9570A): 0.062 µg/mL
- MIC (P. mirabilis 620A): 128 µg/mL
- MIC (P. vulgaris 101): 64 µg/mL
- MIC (S. marcescens S5): 0.25 µg/mL
- MIC (P. vulgaris 100): 0.5 µg/mL
- MIC (S. pyogenes 4): 1 µg/mL
- MIC (S. marcescens S3): 0.062 µg/mL
- MIC (S. marcescens S714): 0.125 µg/mL
- MIC (E. cloacae 9295): 0.125 µg/mL
- MIC (K. pneumoniae 5096): > 128 µg/mL
- MIC (K. pneumoniae HE7): > 128 µg/mL
- MIC (P. aeruginosa POW 151): > 128 µg/mL
- MIC (P. mirabilis 2): 0.125 µg/mL
- MIC (S. marcescens 5805; Serratia marcescens, 5805): 0.25 µg/mL
- MIC (K. pneumoniae 503-994): 0.062 µg/mL
- MIC (P. rettgeri ATCC 9250): 0.125 µg/mL
- MIC (E. cloacae 24): 0.125 µg/mL
- MIC (S. schottmuelleri): 0.031 µg/mL
- MIC (E. cloacae 5699): 0.062 µg/mL
- MIC (E. aerogenes 83): 8 µg/mL
- MIC (P. aeruginosa 5712): 64 µg/mL
- MIC (E. cloacae P99): 0.016 µg/mL
- MIC (K. pneumoniae 4964): 32 µg/mL
- MIC (P. mirabilis 190): 0.125 µg/mL
- MIC (P. vulgaris ATCC 6380): 0.031 µg/mL
- MIC (S. marcescens SM): 0.062 µg/mL
- MIC (S. aureus Smith): 8 µg/mL
- MIC (P. mirabilis 503-1136): 4 µg/mL
- MIC (S. marcescens S4): 0.25 µg/mL
- MIC (K. pneumoniae 8357; Klebsiella pneumoniae, 8357, K. pneumoniae 8357, read-out: MIC): 0.125 µg/mL
- MIC (S. marcescens S2): 0.062 µg/mL
- MIC (S. aureus 1059B): 64 µg/mL
- MIC (C. freundii 8ASM; C. freundii 8ASM, read-out: MIC): 0.031 µg/mL
- MIC (P. aeruginosa 8780): 128 µg/mL

Compound: CCc1nc(C)cn1CCCC1CCN(C=N[C@@H]2C(=O)N3[C@@H]2SC(C)(C)[C@@H]3C(=O)O)CC1 [G, [2S-(2alpha,5alpha,6beta)]-6-[[[4-[3-(2-ethyl-4methyl-1H-imidazol-1-yl)propyl]piperidinyl]methylene]amino]-3,3-dimethyl-7-oxo-4-thia-1-azabicyclo[3.2.0]heptane-2-carboxylic acid hydrochloride]
- MIC (E. coli 257; Escherichia coli, 257): 0.25 µg/mL
- MIC (P. aeruginosa 6148B): > 128 µg/mL
- MIC (E. cloacae 214): 0.25 µg/mL
- MIC (P. mirabilis 90): 1 µg/mL
- MIC (S. marcescens S147): 1 µg/mL
- MIC (K. pneumoniae A): 0.125 µg/mL
- MIC (E. aerogenes 503-478): 8 µg/mL
- MIC (S. pneumoniae SC): 1 µg/mL
- MIC (P. aeruginosa 503-820): > 128 µg/mL
- MIC (E. aerogenes 8): 16 µg/mL
- MIC (E. cloacae 9570A): 0.5 µg/mL
- MIC (P. mirabilis 620A): 64 µg/mL
- MIC (P. vulgaris 101): 16 µg/mL
- MIC (S. marcescens S5): 2 µg/mL
- MIC (P. vulgaris 100): 32 µg/mL
- MIC (S. pyogenes 4): 1 µg/mL
- MIC (S. marcescens S3): 1 µg/mL
- MIC (S. marcescens S714): 8 µg/mL
- MIC (E. cloacae 9295): 0.5 µg/mL
- MIC (K. pneumoniae 5096): 128 µg/mL
- MIC (K. pneumoniae HE7): > 128 µg/mL
- MIC (P. aeruginosa POW 151): > 128 µg/mL
- MIC (P. mirabilis 2): 1 µg/mL
- MIC (S. marcescens 5805; Serratia marcescens, 5805, S. marcescens 5805, read-out: MIC): 4 µg/mL
- MIC (K. pneumoniae 503-994): 0.25 µg/mL
- MIC (P. rettgeri ATCC 9250): 1 µg/mL
- MIC (E. cloacae 24): 0.5 µg/mL
- MIC (S. schottmuelleri): 0.125 µg/mL
- MIC (E. cloacae 5699): 0.5 µg/mL
- MIC (E. aerogenes 83): 0.5 µg/mL
- MIC (P. aeruginosa 5712): > 128 µg/mL
- MIC (E. cloacae P99): 0.5 µg/mL
- MIC (K. pneumoniae 4964): 2 µg/mL
- MIC (P. mirabilis 190): 0.5 µg/mL
- MIC (P. vulgaris ATCC 6380): 0.25 µg/mL
- MIC (S. marcescens SM): 1 µg/mL
- MIC (S. aureus Smith): 8 µg/mL
- MIC (P. mirabilis 503-1136): 16 µg/mL
- MIC (S. marcescens S4): 2 µg/mL
- MIC (K. pneumoniae 8357; Klebsiella pneumoniae, 8357): 1 µg/mL
- MIC (S. marcescens S2): 1 µg/mL
- MIC (S. aureus 1059B): 128 µg/mL
- MIC (C. freundii 8ASM): 0.125 µg/mL
- MIC (P. aeruginosa 8780): > 128 µg/mL
